Here are results for 14 molecules from patent publication US10611740B2, “Aryl dihydro-2H-benzo[b][1,4]oxazine sulfonamide and related compounds for use as agonists of RORγ and the treatment of disease” (Lycera Corporation, priority 2015, dated 2020).

One assay addresses T1, Gal4-RORγ-LBD (Homo sapiens, UniProt P51449).
T1 construct: expressed in transfected cells; host or cells: HEK-293 cells (pcDNA3.1neo plasmid)
T1 sequence (P51449 269-508 limits assumed): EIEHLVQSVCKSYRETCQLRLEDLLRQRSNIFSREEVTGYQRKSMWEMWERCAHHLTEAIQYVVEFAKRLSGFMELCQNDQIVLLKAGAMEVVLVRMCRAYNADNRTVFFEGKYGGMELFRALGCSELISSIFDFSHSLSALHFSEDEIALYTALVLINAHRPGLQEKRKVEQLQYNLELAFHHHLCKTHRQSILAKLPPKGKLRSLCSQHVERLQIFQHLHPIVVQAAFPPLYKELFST
The assay is described as follows: Gal4-RORγ Luciferase Reporter Assay in HEK-293T Cells. The class given is cell-based. The note with it: HEK-293 cells. A digest of the protocol:
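HEK-293 cells were transiently co-transfected with Gal4-RORγ-LBD and pGL4.31 Gal4-luciferase, with ursolic acid added at 2 μM final. Compounds were incubated overnight at 37° C. in 0.2% DMSO and luminescence read with One-Glo. Max Response is the upper plateau of a 4-parameter logistic fit, with signal lacking ursolic acid or compound set to 100.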
A general note: Reporter assays use an easily measured gene product as a stand-in for the process of interest.

In a further assay the target is T2, RORγ-LBD (Homo sapiens, UniProt P51449).
T2 construct: made in house; host or cells: SF9 cells (baculovirus)
T2 sequence (P51449 269-508 limits assumed): T1 sequence (P51449 269-508 limits assumed)
Briefly: RORγ-Ligand Binding Domain (LBD) TR-FRET Assay.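 As to TR-FRET Assay Max Response: 665/615 nm ratio relative to signal without ursolic acid or compound set at 100.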 The class given is biochemical. A digest of the protocol: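 Compounds, diluted in DMSO and then in assay buffer (1% DMSO final), were combined with His-tagged RORγ-LBD lysate at roughly 3 nM final and a 200 nM biotinylated SRC1 LXXLL peptide. Ursolic acid was included at 2 μM final. Coactivator recruitment was detected by TR-FRET.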
(In general: Time-resolved FRET reads energy transfer from a long-lived donor to a nearby acceptor.)

Setting [1] is: luciferase reporter, with 2 μM ursolic acid.

On to `CC(C)C(=O)NC[C@H]1CN(S(=O)(=O)c2cccc(C(F)(F)F)c2)c2cc(-c3cc(F)ccc3F)ccc2O1` [Compound 30AX, (S)-N-((6-(2,5-difluorophenyl)-4-((3-(trifluoromethyl)phenyl)-sulfonyl)-3,4-dihydro-2H-benzo[b][1,4]oxazin-2-yl)methyl)isobutyramide], for which, on Gal4-RORγ-LBD (setting [1]), the 50% effective concentration (EC50) (commonly the concentration giving half of the maximal effect) was less than 500 nM and the “Gal4-RORγ Assay Max Response” value is “** (The symbol “**” indicates a value in the range of greater than 90 to 150)”. Besides, at RORγ-LBD, the EC50 is less than 500 nM and the “TR-FRET Assay Max Response” value is “*** (The symbol “***” indicates a value in the range of greater than 150 to 200)”.
Consider `Cc1cccc(-c2ccc3c(c2)N(S(=O)(=O)c2cccc(C(F)(F)F)c2)C[C@H](CCC(=O)O)O3)c1` [Compound 2Q, (S)-3-(6-(m-tolyl)-4-((3-(trifluoromethyl)phenyl)-sulfonyl)-3,4-dihydro-2H-benzo[b][1,4]oxazin-2-yl)propanoic acid], for which, on Gal4-RORγ-LBD (setting [1]), the concentration for a half-maximal effect (EC50) is less than 500 nM and the “Gal4-RORγ Assay Max Response” value is “*** (The symbol “***” indicates a value in the range of greater than 150 to 200)”. Also, at RORγ-LBD, the half-maximal effective concentration (EC50) was less than 500 nM and the “TR-FRET Assay Max Response” value was “*** (The symbol “***” indicates a value in the range of greater than 150 to 200)”.
In the case of `CN(C)c1cccc(-c2ccc3c(c2)N(S(=O)(=O)c2cccc(C(F)(F)F)c2)C[C@H](CCCOc2noc(=O)[nH]2)O3)n1` [Compound 35, (S)-3-(3-(6-(6-(dimethylamino)pyridin-2-yl)-4-((3-(trifluoromethyl)phenyl)sulfonyl)-3,4-dihydro-2H-benzo[b][1,4]oxazin-2-yl)propoxy)-1,2,4-oxadiazol-5(4H)-one], at Gal4-RORγ-LBD (setting [1]), the EC50 was less than 500 nM and the “Gal4-RORγ Assay Max Response” value was “** (The symbol “**” indicates a value in the range of greater than 90 to 150)”. Also, on RORγ-LBD, the half-maximal effective concentration (EC50) is less than 500 nM and the “TR-FRET Assay Max Response” value is “**** (The symbol “****” indicates a value greater than 200)”.
As for `Cc1nnc(-c2ccc3c(c2)N(S(=O)(=O)c2cccc(C(F)(F)F)c2)C[C@H](CCC(=O)O)O3)s1` [Compound 2AZ, (S)-3-(6-(5-methyl-1,3,4-thiadiazol-2-yl)-4-((3-(trifluoromethyl)phenyl)-sulfonyl)-3,4-dihydro-2H-benzo[b][1,4]oxazin-2-yl)propanoic acid], the half-maximal effective concentration (EC50) at Gal4-RORγ-LBD (setting [1]) and at RORγ-LBD was greater than 10000 nM each time. The “Gal4-RORγ Assay Max Response” value at Gal4-RORγ-LBD (setting [1]) is “** (The symbol “**” indicates a value in the range of greater than 90 to 150)”.
As for `O=C(NC[C@H]1CN(S(=O)(=O)c2cccc(C(F)(F)F)c2)c2cc(-c3cc(F)ccc3F)ccc2O1)N1CCOCC1` [Compound 16, (S)—N-((6-(2,5-difluorophenyl)-4-((3-(trifluoromethyl)phenyl)sulfonyl)-3,4-dihydro-2H-benzo[b][1,4]oxazin-2-yl)methyl)morpholine-4-carboxamide], at Gal4-RORγ-LBD (2 μM ursolic acid), the half-maximal effective concentration (EC50) was less than 500 nM and the “Gal4-RORγ Assay Max Response” value was “** (The symbol “**” indicates a value in the range of greater than 90 to 150)”. For the same molecule, on RORγ-LBD, the concentration giving a half-maximal response (EC50) is less than 500 nM and the “TR-FRET Assay Max Response” value was “**** (The symbol “****” indicates a value greater than 200)”.
As to `CC(C)(C[C@H]1CN(S(=O)(=O)c2cccc(C(F)(F)F)c2)c2cc(-c3ccccc3OC(F)(F)F)ccc2O1)C(=O)O` [Compound 32Z, (S)-2,2-dimethyl-3-(6-(2-(trifluoromethoxy)phenyl)-4-((3-(trifluoromethyl)phenyl)sulfonyl)-3,4-dihydro-2H-benzo[b][1,4]-oxazin-2-yl)propanoic acid], on Gal4-RORγ-LBD (2 μM ursolic acid), the 50% effective concentration (EC50) was less than 500 nM and the “Gal4-RORγ Assay Max Response” value is “** (The symbol “**” indicates a value in the range of greater than 90 to 150)”. In addition, at RORγ-LBD, the EC50 is less than 500 nM and the “TR-FRET Assay Max Response” value is “*** (The symbol “***” indicates a value in the range of greater than 150 to 200)”.
Regarding `O=C(O)C1CCN(C(=O)NCC[C@H]2CN(S(=O)(=O)c3cccc(C(F)(F)F)c3)c3cc(-c4cc(F)ccc4F)ccc3O2)CC1` [Compound 23T, (S)-1-((2-(6-(2,5-difluorophenyl)-4-((3-(trifluoromethyl)phenyl)-sulfonyl)-3,4-dihydro-2H-benzo[b][1,4]oxazin-2-yl)ethyl)carbamoyl)piperidine-4-carboxylic acid], at Gal4-RORγ-LBD (setting [1]), the 50% effective concentration (EC50) is less than 500 nM and the “Gal4-RORγ Assay Max Response” value is listed as “** (The symbol “**” indicates a value in the range of greater than 90 to 150)”. On RORγ-LBD, the EC50 is less than 500 nM and the “TR-FRET Assay Max Response” value is listed as “**** (The symbol “****” indicates a value greater than 200)”.
Take `Cc1cc(Cl)cc(-c2ccc3c(c2)N(S(=O)(=O)c2cccc(C(F)(F)F)c2)C[C@H](CC(C)(C)C(=O)O)O3)c1` [Compound 32BB, (S)-3-(6-(3-chloro-5-methyl-phenyl)-4-((3-(trifluoromethyl)-phenyl)sulfonyl)-3,4-dihydro-2H-benzo[b][1,4]oxazin-2-yl)-2,2-dimethylpropanoic acid]: at Gal4-RORγ-LBD (2 μM ursolic acid), the EC50 was less than 500 nM and the “Gal4-RORγ Assay Max Response” value was “** (The symbol “**” indicates a value in the range of greater than 90 to 150)”. Moreover, at RORγ-LBD, the 50% effective concentration (EC50) is less than 500 nM and the “TR-FRET Assay Max Response” value is given as “* (The symbol “*” indicates a value in the range of 25 to 90)”.
As for `CC(=O)N[C@H]1C[C@@](C[C@H]2CN(S(=O)(=O)c3cccc(C(F)(F)F)c3)c3cc(-c4cc(F)cc(OC(F)F)c4)ccc3O2)(C(=O)O)C1` [Compound 84, (1s,3R)-3-acetamido-1-(((S)-6-(3-(difluoromethoxy)-5-fluorophenyl)-4-((3-(trifluoromethyl)phenyl)sulfonyl)-3,4-dihydro-2H-benzo[b][1,4]oxazin-2-yl)methyl)cyclobutane-1-carboxylic acid], on Gal4-RORγ-LBD (2 μM ursolic acid), the EC50 is 500 to 5000 nM and the “Gal4-RORγ Assay Max Response” value is recorded as “* (The symbol “*” indicates a value in the range of 25 to 90)”. At RORγ-LBD, the EC50 is less than 500 nM and the “TR-FRET Assay Max Response” value is reported as “** (The symbol “**” indicates a value in the range of greater than 90 to 150)”.
In the case of `CC(C)(O)C(=O)NCC[C@H]1CN(S(=O)(=O)c2cccc(OC(F)F)c2)c2cc(-c3cc(F)ccc3F)ccc2O1` [Compound 30P, (S)-N-(2-(4-((3-(difluoro-methoxy)phenyl)sulfonyl)-6-(2,5-difluorophenyl)-3,4-dihydro-2H-benzo[b][1,4]oxazin-2-yl)ethyl)-2-hydroxy-2-methylpropanamide], on Gal4-RORγ-LBD (setting [1]), the 50% effective concentration (EC50) was less than 500 nM and the “Gal4-RORγ Assay Max Response” value was “** (The symbol “**” indicates a value in the range of greater than 90 to 150)”. For the same molecule, at RORγ-LBD, the EC50 was less than 500 nM and the “TR-FRET Assay Max Response” value is listed as “**** (The symbol “****” indicates a value greater than 200)”.
For `CC(=O)NCC[C@H]1CN(S(=O)(=O)c2cccc(C(F)(F)F)c2)c2cc(-c3cc(F)ccc3F)ccc2O1` [Compound 13, (S)—N-(2-(6-(2,5-difluorophenyl)-4-((3-(trifluoromethyl)phenyl)sulfonyl)-3,4-dihydro-2H-benzo[b][1,4]oxazin-2-yl)ethyl)acetamide], at Gal4-RORγ-LBD (2 μM ursolic acid), the 50% effective concentration (EC50) was less than 500 nM and the “Gal4-RORγ Assay Max Response” value is listed as “** (The symbol “**” indicates a value in the range of greater than 90 to 150)”. Moreover, at RORγ-LBD, the EC50 is less than 500 nM and the “TR-FRET Assay Max Response” value is listed as “**** (The symbol “****” indicates a value greater than 200)”.
As for `O=C(O)[C@@]1(C[C@H]2CN(S(=O)(=O)c3cccc(C(F)(F)F)c3)c3cc(-c4cc(F)cc(OC(F)F)c4)ccc3O2)C[C@@H](O)[C@@H](O)C1` [Compound 65, (1r,3R,4S)-1-(((S)-6-(3-(difluoromethoxy)-5-fluorophenyl)-4-((3-(trifluoromethyl)phenyl)sulfonyl)-3,4-dihydro-2H-benzo[b][1,4]oxazin-2-yl)methyl)-3,4-dihydroxycyclopentane-1-carboxylic acid], on Gal4-RORγ-LBD (2 μM ursolic acid), the concentration for a half-maximal effect (EC50) lay in the range of 500 to 5000 nM and the “Gal4-RORγ Assay Max Response” value is given as “** (The symbol “**” indicates a value in the range of greater than 90 to 150)”.
In the case of `CC(C)(O[C@@H]1Cc2ccc(-c3cc(F)cc(OC(F)F)c3)cc2N(S(=O)(=O)c2cccc(C(F)(F)F)c2)C1)C(=O)O` [Compound 83D, (R)-2-((7-(3-(difluoromethoxy)-5-fluorophenyl)-1-((3-(trifluoromethyl)phenyl)sulfonyl)-1,2,3,4-tetrahydroquinolin-3-yl)oxy)-2-methylpropanoic acid], at Gal4-RORγ-LBD (2 μM ursolic acid), the EC50 is 500 to 5000 nM and the “Gal4-RORγ Assay Max Response” value is listed as “** (The symbol “**” indicates a value in the range of greater than 90 to 150)”.
On the same counts, the results for `CC(C)(O[C@H]1Cc2ccc(-c3cc(F)cc(OC(F)F)c3)cc2N(S(=O)(=O)c2cccc(C(F)(F)F)c2)C1)C(=O)O` [Compound 83F, (S)-2-((7-(3-(difluoromethoxy)-5-fluorophenyl)-1-((3-(trifluoromethyl)phenyl)sulfonyl)-1,2,3,4-tetrahydroquinolin-3-yl)oxy)-2-methylpropanoic acid] are 500 to 5000 nM and “* (The symbol “*” indicates a value in the range of 25 to 90)”.
